Where two headings read alike, the source gives them in different places.
How the values were obtained:
[1] = Dose ranging study of bethanechol cream in healthy volunteers, anal manometry; format: in vivo, human; details: higher concentrations produced no additional effect
Text: Bethanechol cream at concentrations of 0.05%, 0.1%, 0.5% and 1% w/w bethanechol were made up in accordance with Example 1. The compositions were studied following initial experimentation in an open way to determine a clinically effective dose range. […] Maximal effect was produced by application of 0.1% bethanechol and higher concentrations of the cream produced no additional effect. At 0.1% w/w bethanechol, the mean resting pressure was reduced from about 110 cm to about 85 cm H2O (about 25% decrease). A typical ‘one inch’ application of this cream from the tube is equivalent to 400 mcg of bethanechol.

[2] = higher concentrations did not produce an additional effect
[3] = Study of Example 4 repeated using oral diltiazem
[4] = topical use; cited from earlier work
[5] = after 1 hour, patients with anal fissures; cited from earlier work

With `CC(C[N+](C)(C)C)OC(N)=O` (stereo not shown) [bethanechol] the “concentration producing the maximal effect on resting anal pressure” value [1] was 0.1 % w/w.

In the case of `COc1ccc([C@@H]2Sc3ccccc3N(CCN(C)C)C(=O)[C@@H]2OC(C)=O)cc1` [diltiazem], the “concentration producing the maximal effect on resting anal pressure” value [2] is reported as “about 2 % w/w”, the “effect on mean anal resting pressure” value ([3]; 60 mg oral once a day) is reported as “no notable effect” and the “patients who noticed postural dizziness” value ([3]; 60 mg oral twice a day) is reported as “two”. For the same compound, the “mean anal resting pressure reduced by” value ([3]; 60 mg oral twice a day, P=0.008) was 17%.

For `O=[N+]([O-])OCC(CO[N+](=O)[O-])O[N+](=O)[O-]` [glyceryl trinitrate], the “effect on internal anal resting pressure” value [4] is listed as “reduces the internal anal resting pressure”.

For `O=C(NC1CCN(CCc2c[nH]c3ccccc23)CC1)c1ccccc1` [indoramin], the “reduction of maximum resting pressures in the anal canal” value [5] is given as 35.8%.

From patent publication US8048875B1, “Topical pharmaceutical composition comprising a cholinergic agent or a calcium channel blocker” (S.L.A. Pharma AG, priority 1997, dated 2011)
